Where no end group is shown, it is not given here.
What was measured:
[1] = tested on: bradykinin receptors of rat vas deferens; settings: cited from earlier work
β2 receptors = settings: cited from earlier work
β1 receptor = settings: compared with BK; cited from earlier work
[2] = target: T1, cholinergic muscarinic receptors (Rattus norvegicus, UniProt P10980); assay: [3H] Quinuclidinyl benzilate binding, rat cardiac membranes
T1 construct: rat cardiac membranes; from tissue; host or cells: rat cardiac membranes
T1 sequence (P10980 1-466): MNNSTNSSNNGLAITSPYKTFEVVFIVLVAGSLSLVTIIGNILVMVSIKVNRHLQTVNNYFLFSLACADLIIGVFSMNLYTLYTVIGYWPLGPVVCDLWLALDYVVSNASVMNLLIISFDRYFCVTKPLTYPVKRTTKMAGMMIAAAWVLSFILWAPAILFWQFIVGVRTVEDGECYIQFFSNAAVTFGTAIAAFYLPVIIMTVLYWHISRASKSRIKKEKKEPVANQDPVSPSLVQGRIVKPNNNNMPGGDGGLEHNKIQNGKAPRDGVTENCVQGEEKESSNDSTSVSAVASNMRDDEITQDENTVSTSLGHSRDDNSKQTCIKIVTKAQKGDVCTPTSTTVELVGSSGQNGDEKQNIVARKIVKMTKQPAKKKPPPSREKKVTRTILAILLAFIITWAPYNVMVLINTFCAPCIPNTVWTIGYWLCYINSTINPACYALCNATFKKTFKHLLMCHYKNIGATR

BK-β1 receptors = target: T2, BK-β1 receptors (Oryctolagus cuniculus, UniProt P48748); assay: Antagonism of BK-β1 receptors, spiral strips of rabbit thoracic aorta (agonist des Arg9-BK); settings: Schild analysis
T2 construct: spiral strips of rabbit thoracic aorta; from tissue; host or cells: rabbit thoracic aorta spiral strips
T2 sequence (P48748 1-352): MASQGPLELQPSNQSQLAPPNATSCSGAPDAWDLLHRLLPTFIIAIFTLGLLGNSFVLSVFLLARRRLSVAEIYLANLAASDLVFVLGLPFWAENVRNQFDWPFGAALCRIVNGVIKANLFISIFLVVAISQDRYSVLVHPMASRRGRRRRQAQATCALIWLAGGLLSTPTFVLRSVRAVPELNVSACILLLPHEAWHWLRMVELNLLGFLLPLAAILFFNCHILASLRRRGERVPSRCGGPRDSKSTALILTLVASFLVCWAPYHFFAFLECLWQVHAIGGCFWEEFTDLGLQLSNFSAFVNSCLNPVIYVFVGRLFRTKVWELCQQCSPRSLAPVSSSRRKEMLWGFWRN
Method: (§1) Antagonism of BK-β1 receptors was measured using spiral strips of rabbit thoracic aorta as described by Regoli et. al., Eur. J. Pharmacol., 127,219 (1986).

BK β2 receptor = target: T3, BK β2 receptor (Cavia porcellus, UniProt O70526); assay: [3H] BK radioligand binding, guinea pig ileum membranes; settings: read-out: IC50, inhibition of [3H] BK binding
T3 construct: from tissue; host or cells: guinea pig ileum membranes
T3 sequence (O70526 1-372): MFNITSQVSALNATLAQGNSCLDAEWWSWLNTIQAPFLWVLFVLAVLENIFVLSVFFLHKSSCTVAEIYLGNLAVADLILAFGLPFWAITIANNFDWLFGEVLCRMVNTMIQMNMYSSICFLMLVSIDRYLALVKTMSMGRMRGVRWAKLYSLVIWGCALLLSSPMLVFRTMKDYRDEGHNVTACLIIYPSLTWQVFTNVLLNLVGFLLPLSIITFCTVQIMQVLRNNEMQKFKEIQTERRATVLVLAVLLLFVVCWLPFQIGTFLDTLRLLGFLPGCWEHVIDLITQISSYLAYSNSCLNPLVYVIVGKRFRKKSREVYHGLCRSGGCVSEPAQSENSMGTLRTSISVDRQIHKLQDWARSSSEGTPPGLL

[3] = target: cholinergic muscarinic receptors; assay: [3H] Quinuclidinyl benzilate binding, rat cerebral cortex membranes
α1-adrenergic receptors = assay: [3H] Prazosin radioligand binding, rat brain
α1-adrenergic receptor = α1-adrenergic receptor activity in rabbit aorta (agonist norepinephrine)
Method: as §1
(§2) The α1 -adrenergic and H1 histaminergic receptor activity of compounds were also assessed using rabbit aorta with norepinephrine and histamine, respectively, as agonists.

histamine H1 receptor = assay: H1 histaminergic receptor activity in rabbit aorta (agonist histamine)
Method: as §1, §2

[4] = target: T4, cholinergic muscarinic receptors (Cavia porcellus, UniProt H0VRN8); assay: [3H] Quinuclidinyl benzilate binding, guinea pig ileum membranes
T4 construct: guinea pig ileum membranes as described by Watson; from tissue; host or cells: guinea pig ileum membranes
T4 sequence (H0VRN8 1-466): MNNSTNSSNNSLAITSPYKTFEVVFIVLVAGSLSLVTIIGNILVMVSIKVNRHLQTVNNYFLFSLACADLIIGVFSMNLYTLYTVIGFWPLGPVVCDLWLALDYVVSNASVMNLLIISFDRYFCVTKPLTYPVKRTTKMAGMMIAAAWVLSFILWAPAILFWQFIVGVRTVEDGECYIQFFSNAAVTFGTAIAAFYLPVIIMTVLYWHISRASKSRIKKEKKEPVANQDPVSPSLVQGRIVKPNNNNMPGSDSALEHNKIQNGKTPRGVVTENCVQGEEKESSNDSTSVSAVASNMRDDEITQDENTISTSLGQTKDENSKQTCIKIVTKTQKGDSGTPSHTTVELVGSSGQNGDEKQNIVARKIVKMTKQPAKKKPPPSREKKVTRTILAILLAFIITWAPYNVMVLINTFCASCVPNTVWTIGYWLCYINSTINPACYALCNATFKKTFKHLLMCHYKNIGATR

## RPPGFSPFR [BK]
[1]; isolated rat vas deferens
  musculotropic or postjunctional action: contracted the smooth muscle generating an increased muscle tone
[1]; isolated rat vas deferens, electrically driven twitches
  neurogenic or presynaptic effect: potentiated the magnitude of the muscular response to the electrically driven twitches

## des-Arg^9 -bradykinin
β2 receptors
  activity at β2 receptors: relatively inactive
[1]; rat vas deferens
  pre- or postsynaptic BK like responses: inactive
β1 receptor
  β1 receptor agonist potency: higher potency than BK

## CC(C)=CCNC(=N)NCCC[C@@H]1Nc2ccc(C(=O)OC/C(C)=C/CNC(=N)N)cc2[C@@H]2[C@H]1CCN2C(=N)NCC=C(C)C (relative stereo) [Compound I]
[2]
  IC50: 100 nM
BK-β1 receptors
  mode of antagonism, β1 receptor: competitive β1 receptor antagonist
BK-β1 receptors; read-out: pA2 value, β1 receptor (converted)
  Kb: 2000 nM
BK β2 receptor
  IC50: 200 nM
[3]
  IC50: 100 nM
α1-adrenergic receptors
  IC50: 60 nM
α1-adrenergic receptor
  mode of antagonism, α1 receptor: competitive antagonist
  pA2 value, α1 receptor: 7.1
Histamine H1 receptor
  mode of antagonism, histamine H1 receptor: competitive antagonist
  pA2 value, histamine H1 receptor: 5.9
[4]
  IC50: 100 nM
